Results reported in patent publication US20130131179A1, “IRON METABOLISM-IMPROVING AGENT” (Ajinomoto Co., Inc., priority 2006, published 2013).
Counter-ions that a name gives are not always drawn.

Key:
[1] = tested on: bilaterally nephrectomized rats; experiment: Citric acid administration in bilaterally nephrectomized rats; settings: third group, 4.5% (w/v) sodium citrate solution by CVC 0.25 mL/h for 4 hours
[2] = as above; settings: male, CD(SD), rat, plasma, intravenous, 0.25 mL/h of 4.5% (w/v) sodium citrate solution for 4 h
[3] = Citric acid administration in a dialysis session in bilateral-kidney-extirpated rats; settings: male, CD(SD), rat, plasma, intravenous
[4] = tested on: bilateral-kidney-extirpated rats; experiment: as above

SMILES: O=C(O)CC(O)(CC(=O)O)C(=O)O [citric acid, sodium citrate]
- difference of plasma iron concentrations between before and after administration [1]: 14 to 18 µg/dL
- concentration at 4 h [2]: 211 ± 132 µg/mL
- concentration at 4 h [3]: 265 µg/mL
- difference of plasma iron concentrations relative to that of second group (saline) ([4]; third group versus second group, during 4 h dialysis): about 4 times
- difference of plasma iron concentrations between before and after administration ([4]; third group, 4.5% (w/v) sodium citrate solution by CVC 1.0 mL/h during 4 h dialysis with commercial dialysate): 81 µg/dL
